Measurements as given in paper PMC6835953, “Formulation Composition and Process Affect Counterion for CSP7 Peptide” (Pharmaceutics, 2019).
Where two headings read alike, the source gives them in different places. Where no end group is shown, it is not given here.

How the values were obtained:
[1] = Thermogravimetric analysis overlaid with DSC; conditions: after boiling at ~190 °C (melting at ~130 °C)
Method: Thermogravimetric Analysis (TGA) was performed for ammonium acetate and ammonium TFA using a TA Thermogravimetric Analyzer Q500 (TA, Instruments, New Castle, DE, USA). Standard aluminum pans were filled with about 5–7 mg of powder. Temperature ramp experiments were performed from 30 °C to 300 °C at a rate of 5 °C·min^−1 with a nitrogen purge at 50 mL·min^−1.
Differential scanning calorimetry (DSC) analysis was performed using a TA Instruments 175 Model Auto Q20 DSC. Samples of 5–7 mg were weighed and placed into standard aluminum pans. The scans were performed at a ramp rate of 5 °C·min^−1 in the range of 30–300 °C. During the analyses, high-purity nitrogen flowed through the sample chamber at a rate of 50 mL·min^−1.

[2] = cited from earlier work
[3] = physchem; format: physicochemical
Method: The samples were shaken on a vortex mixer for 5 min and on an orbital shaker at 100 rpm for 3 h. The samples were collected and centrifuged at 12,000 rpm for 15 min. The supernatants of the samples were collected and analyzed using HPLC as described in Section 2.6 below.
(§1) CSP7 was chemically analyzed with a Thermo Scientific™ Dionex™ UltiMate™ 3000 HPLC System (Thermo Scientific, Sunnyvale, CA, USA) with a wavelength of 220 nm. The two mobile phases were designated Phase A (0.1% trifluoroacetic acid in water) and Phase B (0.09% trifluoroacetic acid in a mixture of 20:80 water and acetonitrile). The HPLC gradient that operated at 1.0 mL·min^−1 ran from 25% to 35% for mobile Phase B for 20 min then equilibrated at 25% for 5 min. An Ultimate 3000 Autosampler was utilized to inject 20 μL samples. Injections were passed through a Phenomenex® Luna 5 μm C18(2) 100 Å, 150 mm × 4.6 mm (Phenomenex, Torrance, CA, USA), maintained at ambient temperature. The retention time of CSP7 was approximately 8.3 min. The standard curve of the CSP7 (concentrations of 0.015625–1.00 mg·mL^−1) were prepared. All analyses maintained linearity in the range tested. Chromeleon Version 6.80 software (Thermo Scientific) was used to process all chromatography data.

[4] = Water sorption-desorption isotherm (dynamic vapor sorption); format: physicochemical; conditions: bulk powder, 25 °C, sorption-desorption cycle
Method: Water sorption isotherms at 25 °C were determined for lyophilized formulations using a dynamic vapor sorption (DVS-1) microbalance (Surface Measurement Systems, London, UK). A quartz pan was filled with about 8–10 mg of powder. Samples were dried with nitrogen gas until a baseline was established less than 0.002% change in dm/dt for 120 min. Each formulation was run through a full sorption-desorption cycle from 0% to 90% RH in steps of 10% RH at 25 °C. Humidity was increased/decreased by 10% after equilibrium was reached, as determined by a dm/dt less than 0.0075% within an interval of 5 min. Sorption-desorption isotherms were calculated and plotted based on their percent change in mass compared to the initial dry formulation weight (Equation (2)):(2) % Mass sorption/desorption =(Increase or decrease in mass from water sorption/desorption/mass of dry powder at initial equilibration (0% RH))× 100

[5] = Molar ratio of counterions to CSP7 by solution 1H/19F NMR; format: physicochemical; conditions: bulk powder, initial vs after exposure to 90% RH, Equation (6)
Method: We acquired ^1H-NMR spectra using a Varian® NMR 600 MHz Spectrometer (Agilent Inc., Palo Alto, CA, USA) at 25 °C. The lyophilized samples were reconstituted in deuterium oxide at 1.0 mg·mL^−1. We added 5 μL of 1 N NaOH/D2O was added to the sample to dissolve the peptides. Solutions were then transferred to 5 mm NMR tubes for NMR data acquisition. Chemical shifts were referenced to a residual solvent, H2O, at 4.61 ppm. At this time, the ^1H-NMR spectra were acquired using an Agilent Direct Drive 600 spectrometer, operating at a proton frequency of 599.75 MHz (14.1 T) at 298 K, equipped with an AutoX DB probe. All ^1H-NMR spectra were recorded in D2O after 128 cycles for each sample. The molar ratio of counterion to peptide was calculated according to the peak area of the methyl group of CSP7 (0.85, 0.93, and 1.03 ppm; 18 H atoms in total) and the methyl group of the acetate counterion (1.75 ppm; 3 H atoms). […]
We acquired ^19F-NMR spectra using a Varian® NMR 600 MHz Spectrometer (Agilent Inc., Palo Alto, CA, USA) at 25 °C. […] All ^19F NMR spectra were recorded in D2O after 512 cycles for each sample. The molar ratio of counterion to peptide was calculated according to the peak area of fluorine atoms of the trifluoroacetate counterion (−75.5 ppm, 3 F atoms) and the […] (−107.7, −110.9, and −133.5 ppm; 1F atom each). […]

[6] = Solution storage stability (HPLC recovery); format: physicochemical
Method: (§2) The peptide solution was prepared in DPBS and TBS at 0.5 mg·ml^−1 of free peptide. The ammonium hydroxide was added to the solution to dissolve the peptide until a clear solution was obtained.
The peptide solutions were stored at −80 °C, −20 °C, 2−8 °C, and at room temperature (25 °C). The samples were collected after 24 h and 48 h and analyzed using HPLC as described in Section 2.6 below.
as §1

[7] = format: physicochemical
Method: as §2
Freeze-thaw cycles were studied at −20 °C and −80 °C. The peptide solutions were frozen at each temperature for 1 h and then thawed at room temperature (25 °C) for 1 h. The freeze-thaw cycle was repeated for 5 cycles. The samples were collected at the end of each cycle and analyzed using HPLC as described in Section 2.6 below.
as §1

[8] = format: physicochemical; conditions: DPBS; for Recovery of CSP7 in the aggregates / Recovery of CSP7 in the supernatant: 12 h shaking
Method: as §2
The peptide solutions were shaken on a VWR standard orbital shaker model 1000 (Radnor, PA, USA) at 200 rpm at 5 °C and 25 °C. The samples were collected at 0.5, 1, 3, 6, and 12 h, and they were analyzed using HPLC as described in Section 2.6 below. The CSP7 aggregates were also collected and analyzed using ^1H-NMR as described in Section 2.14 below.
as §1

## N.O=C(O)C(F)(F)F [ammonium TFA]
[1]
  Mass remaining in TGA: 0%

## CC(=O)O.N [ammonium acetate]
[2]; at 25 °C
  Vapor pressure: 13.9 mm Hg
[2]
  Boiling point: 138.5 °C

## FTTFTVT [CSP7 TFA]
[3]; 3 h, pH 10
  Solubility: 4134 ± 320 µg/mL
[3]; pH 8, Solubility
  solubility at 3 h: 1220 ± 24 µg/mL
[4]
  Decrease in weight in moisture desorption isotherm compared to initial weight: no change in weight

## FTTFTVT [CSP7 acetate]
[3]; pH 2, Solubility
  solubility at 3 h: 701 ± 153 µg/mL
[3]; pH 3.5, Solubility
  solubility at 3 h: 241 ± 7 µg/mL
[3]; pH 4.5, Solubility
  solubility at 3 h: 160 ± 3 µg/mL
[3]; pH 5.5, Solubility
  solubility at 3 h: 174 ± 16 µg/mL
[3]; pH 6.5, Solubility
  solubility at 3 h: 178 ± 13 µg/mL
[3]; pH 7.5, Solubility
  solubility at 3 h: 347 ± 14 µg/mL
[3]; pH 10, Solubility
  solubility at 3 h: 2880 ± 201 µg/mL
[4]
  Decrease in weight in moisture desorption isotherm compared to initial weight: 6.36%
[5]
  Percentage of mass loss calculated from NMR molar ratios of acetate to CSP7: 6.37%
[6]; DPBS, 24 h, 5 °C
  Recovery in bulk solution after storage: 99.9 ± 0.1%
[6]; DPBS, 24 h, 25 °C
  Recovery in bulk solution after storage: 100.1 ± 0.1%
[6]; DPBS, 24 h, −20 °C
  Recovery in bulk solution after storage: 100.2 ± 0.8%
[6]; DPBS, 24 h, −80 °C
  Recovery in bulk solution after storage: 100.0 ± 0.1%
[6]; DPBS, 48 h, 5 °C
  Recovery in bulk solution after storage: 99.9 ± 0.1%
[6]; DPBS, 48 h, 25 °C
  Recovery in bulk solution after storage: 99.9 ± 0.3%
[6]; DPBS, 48 h, −20 °C
  Recovery in bulk solution after storage: 100.3 ± 0.7%
[6]; DPBS, 48 h, −80 °C
  Recovery in bulk solution after storage: 100.0 ± 0.1%
[6]; TBS, 24 h, 5 °C
  Recovery in bulk solution after storage: 100.1 ± 0.2%
[6]; TBS, 24 h, 25 °C
  Recovery in bulk solution after storage: 100.2 ± 0.3%
[6]; TBS, 24 h, −20 °C
  Recovery in bulk solution after storage: 100.2 ± 0.2%
[6]; TBS, 24 h, −80 °C
  Recovery in bulk solution after storage: 100.1 ± 0.2%
[6]; TBS, 48 h, 5 °C
  Recovery in bulk solution after storage: 100.1 ± 0.1%
[6]; TBS, 48 h, 25 °C
  Recovery in bulk solution after storage: 100.3 ± 0.1%
[6]; TBS, 48 h, −20 °C
  Recovery in bulk solution after storage: 100.5 ± 0.2%
[6]; TBS, 48 h, −80 °C
  Recovery in bulk solution after storage: 100.5 ± 0.4%
[6]; after 48 h storage at −80 °C, −20 °C, 5 °C and 25 °C
  Recovery of CSP7 in DPBS and TBS: about 100%
[7]
  CSP7 remaining in DPBS and TBS: about 100%
[7]; DPBS, −20 °C, cycle 1
  Recovery in bulk solution after freeze-thaw: 100.3 ± 0.2%
[7]; DPBS, −20 °C, cycle 2
  Recovery in bulk solution after freeze-thaw: 100.7 ± 0.1%
[7]; DPBS, −20 °C, cycle 3
  Recovery in bulk solution after freeze-thaw: 100.7 ± 0.1%
[7]; DPBS, −20 °C, cycle 4
  Recovery in bulk solution after freeze-thaw: 101.0 ± 0.2%
[7]; DPBS, −20 °C, cycle 5
  Recovery in bulk solution after freeze-thaw: 101.3 ± 0.2%
[7]; DPBS, −80 °C, cycle 1
  Recovery in bulk solution after freeze-thaw: 99.8 ± 0.2%
[7]; DPBS, −80 °C, cycle 2
  Recovery in bulk solution after freeze-thaw: 100.1 ± 0.1%
[7]; DPBS, −80 °C, cycle 3
  Recovery in bulk solution after freeze-thaw: 100.2 ± 0.2%
[7]; DPBS, −80 °C, cycle 4
  Recovery in bulk solution after freeze-thaw: 100.4 ± 0.1%
[7]; DPBS, −80 °C, cycle 5
  Recovery in bulk solution after freeze-thaw: 100.9 ± 0.1%
[7]; TBS, −20 °C, cycle 1
  Recovery in bulk solution after freeze-thaw: 99.4 ± 0.3%
[7]; TBS, −20 °C, cycle 2
  Recovery in bulk solution after freeze-thaw: 99.6 ± 0.1%
[7]; TBS, −20 °C, cycle 3
  Recovery in bulk solution after freeze-thaw: 99.7 ± 0.2%
[7]; TBS, −20 °C, cycle 4
  Recovery in bulk solution after freeze-thaw: 99.8 ± 0.2%
[7]; TBS, −20 °C, cycle 5
  Recovery in bulk solution after freeze-thaw: 100.2 ± 0.1%
[7]; TBS, −80 °C, cycle 1
  Recovery in bulk solution after freeze-thaw: 99.9 ± 0.3%
[7]; TBS, −80 °C, cycle 2
  Recovery in bulk solution after freeze-thaw: 100.3 ± 0.2%
[7]; TBS, −80 °C, cycle 3
  Recovery in bulk solution after freeze-thaw: 100.4 ± 0.2%
[7]; TBS, −80 °C, cycle 4
  Recovery in bulk solution after freeze-thaw: 100.7 ± 0.2%
[7]; TBS, −80 °C, cycle 5
  Recovery in bulk solution after freeze-thaw: 100.6 ± 0.4%
[8]; 5 °C
  Recovery of CSP7 in the aggregates: 31.7 ± 2.3%
  Recovery of CSP7 in the supernatant: 67.8 ± 5.8%
[8]; 25 °C
  Recovery of CSP7 in the aggregates: 38.3 ± 2.8%
  Recovery of CSP7 in the supernatant: 59.7 ± 1.5%
[8]; orbital shaker, 5 °C and 25 °C
  Shaking time after which peptide aggregation was found: 6 h
